ChEMBL document CHEMBL5584313, “Design and Synthesis of 7-Oxabicyclo[2.2.1]heptane-2,3-dicarboxylic Acid Derivatives as PP5 Inhibitors To Reverse Temozolomide Resistance in Glioblastoma Multiforme” (J Med Chem, 2024)
The source made the active and inactive calls. The calls are words filed in the database; no cut-off is given here.

Legend:
[1] = Aqueous stability of compound assessed as compound remaining measured at 240 mins by HPLC assay; assay type: physicochemical; settings: aqueous solution, read-out: Stability
[2] = Stability in mouse plasma assessed as half life measured upto 300 mins by LC-MS/MS analysis; assay type: ADME, cell-free
[3] = Inhibition of PP2A in human U-87 MG cell lysate using RRA(pT)VA as substrate; assay type: subcellular
[4] = organism: Homo sapiens; assay: Selectivity ratio of IC50 for PP1 (unknown origin ) to IC50 for PP5 (unknown origin)
[5] = organism: Homo sapiens; assay: Selectivity ratio of IC50 for PP2A (unknown origin ) to IC50 for PP5 (unknown origin)
[6] = tested on: U-87 MG; assay: Cytotoxicity against human U-87 MG cells incubated for 48 hrs by CCK8 assay; assay type: functional, cell-based, U-87MG ATCC
[7] = tested on: HCT-116; assay: Cytotoxicity against human HCT-116 cells incubated for 48 hrs by CCK8 assay; assay type: functional, cell-based; settings: HCT-116, 48 h
[8] = Cytotoxicity against HEK293T cells incubated for 48 hrs by CCK8 assay; assay type: toxicity, cell-based, HEK-293T; settings: human
[9] = Cytotoxicity against HUVECs incubated for 48 hrs by CCK8 assay; assay type: toxicity, cell-based; settings: human, HUVEC cells
[10] = Cytotoxicity against human BEAS-2B incubated for 48 hrs by CCK8 assay; assay type: toxicity, cell-based; settings: BEAS-2B cells
[11] = tested on: U-87 MG; assay: Synergistic antiproliferative activity against human U-87 MG cells in presence of TMZ; assay type: functional, cell-based, U-87MG ATCC
[12] = tested on: U-87 MG; assay: Induction of apoptosis in human U-87 MG cells assessed as G2/M phase cells at 5 uM incubated for 24 hrs by propidium iodide staining based flow cytometry analysis (reference value: 11.9%); assay type: functional, U-87MG ATCC
[13] = tested on: U-87MG ATCC; assay: Upregulation of p53 expression in human U-87 MG cells at 6.25 to 100 uM after 24 hrs by Western blotting analysis; assay type: functional, cell-based; settings: dose 6.25-100 µM
[14] = tested on: U-87MG ATCC; assay: Upregulation of p27 expression in human U-87 MG cells at 6.25 to 100 uM after 24 hrs by Western blotting analysis; assay type: functional, cell-based; settings: dose 6.25-100 µM
[15] = tested on: U-87MG ATCC; assay: Upregulation of p53 expression in human U-87 MG cells at 25 uM after 24 hrs in presence TMZ by Western blotting analysis; assay type: functional, cell-based
[16] = tested on: U-87MG ATCC; assay: Downregulation of MGMT expression in human U-87 MG cells at 25 uM incubated for 24 hrs by Western blotting analysis; assay type: functional, cell-based
[17] = tested on: U-87MG ATCC; assay: Downregulation of MGMT expression in human U-87 MG cells at 25 uM incubated for 24 hrs in presence of TMZ by Western blotting analysis; assay type: functional, cell-based
[18] = Stability of compound in water assessed as remaining compound after 24 hrs; assay type: physicochemical; settings: read-out: Stability
[19] = Stability of compound in stimulated intestinal fluid assessed as remaining compound after 24 hrs by HPLC method; assay type: ADME; settings: simulated intestinal fluid, read-out: Stability
[20] = Tmax in Sprague-Dawley rat at 5 mg/kg, iv measured upto 24 hrs by LC-MS/MS method; assay type: ADME, organism-based; settings: in vivo
[21] = AUC(0 to infinity) in Sprague-Dawley rat at 5 mg/kg, iv measured upto 24 hrs by LC-MS/MS method; assay type: ADME, organism-based; settings: in vivo
[22] = Half-life in Sprague-Dawley rat at 5 mg/kg, iv measured upto 24 hrs by LC-MS/MS method; assay type: ADME, organism-based; settings: in vivo
[23] = MRT(0 to infinity) in Sprague-Dawley rat at 5 mg/kg, iv measured upto 24 hrs by LC-MS/MS method; assay type: ADME, organism-based; settings: in vivo
[24] = Apparent volume of distribution in Sprague-Dawley rat at 5 mg/kg, iv measured upto 24 hrs by LC-MS/MS method; assay type: ADME, organism-based; settings: in vivo, read-out: Vz
[25] = Apparent clearance in Sprague-Dawley rat at 5 mg/kg, iv measured upto 24 hrs by LC-MS/MS method; assay type: ADME, organism-based; settings: in vivo, read-out: CL(app) (converted)
[26] = Cmax in Sprague-Dawley rat at 25 mg/kg, po measured upto 24 hrs by LC-MS/MS method; assay type: ADME, organism-based; settings: in vivo
[27] = AUC(0 to infinity) in Sprague-Dawley rat at 25 mg/kg, po measured upto 24 hrs by LC-MS/MS method; assay type: ADME, organism-based; settings: in vivo
[28] = Half-life in Sprague-Dawley rat at 25 mg/kg, po measured upto 24 hrs by LC-MS/MS method; assay type: ADME, organism-based; settings: in vivo
[29] = MRT(0 to infinity) in Sprague-Dawley rat at 25 mg/kg, po measured upto 24 hrs by LC-MS/MS method; assay type: ADME, organism-based; settings: in vivo
[30] = Apparent volume of distribution in Sprague-Dawley rat at 25 mg/kg, po measured upto 24 hrs by LC-MS/MS method; assay type: ADME, organism-based; settings: in vivo
[31] = Oral bioavailability in Sprague-Dawley rat at 25 mg/kg measured upto 24 hrs by LC-MS/MS method; assay type: ADME, organism-based; settings: in vivo
[32] = tested on: U-87 MG; assay: Antitumor activity against human U-87 MG cells xenografted in BALB/c nude mouse assessed as tumor growth retardation at 3 mg/kg, po administered every other day for 18 days; assay type: functional, organism-based; settings: U-87MG ATCC, time 18.0 day
[33] = tested on: U-87 MG; assay: Antitumor activity against human U-87 MG cells xenografted in BALB/c nude mouse assessed as tumor growth inhibition at 3 mg/kg, po administered every other day for 18 days in presence of 40 mg/kg TMZ; assay type: functional, U-87MG ATCC; settings: 432 h, time 18 day, read-out: TGI
[34] = tested on: U-87 MG; assay: Antitumor activity against human U-87 MG cells xenografted in BALB/c nude mouse assessed as tumor growth inhibition at 1.5 mg/kg, po administered every other day for 18 days in presence of 40 mg/kg TMZ; assay type: functional, U-87MG ATCC; settings: 432 h, time 18 day, read-out: TGI
[35] = tested on: U-87 MG; assay: Antitumor activity against human U-87 MG cells xenografted in BALB/c nude mouse assessed as increase in p53 expression at 1.5 to 3 mg/kg, po measured after 4 hrs in presence of 40 mg/kg TMZ by Western blotting analysis; assay type: functional, organism-based; settings: U-87MG ATCC, dose 1.5-3 mg/kg
[36] = tested on: U-87 MG; assay: Antitumor activity against human U-87 MG cells xenografted in BALB/c nude mouse assessed as reduction in MGMT expression at 1.5 to 3 mg/kg, po measured after 4 hrs in presence of 40 mg/kg TMZ by Western blotting analysis; assay type: functional, organism-based; settings: U-87MG ATCC, dose 1.5-3 mg/kg
[37] = tested on: U-87 MG; assay: Antitumor activity against human U-87 MG cells xenografted in BALB/c nude mouse assessed as tumor tissue necrosis at 1.5 to 3 mg/kg, po administered every other day for 18 days in presence of 40 mg/kg TMZ; assay type: functional, organism-based; settings: U-87MG ATCC, dose 1.5-3 mg/kg, time 18.0 day
[38] = Toxicity in BALB/c nude mouse xenografted with U-87 MG cells assessed as heart damage at 1.5 to 3 mg/kg, po administered every other day for 18 days in presence of 40 mg/kg TMZ by H and E staining based assay; assay type: organism-based; settings: in vivo, 432 h, dose 1.5-3 mg/kg, time 18 day
[39] = Toxicity in BALB/c nude mouse xenografted with U-87 MG cells assessed as lung damage at 1.5 to 3 mg/kg, po administered every other day for 18 days in presence of 40 mg/kg TMZ by H and E staining based assay; assay type: organism-based; settings: in vivo, 432 h, dose 1.5-3 mg/kg, time 18 day
[40] = Toxicity in BALB/c nude mouse xenografted with U-87 MG cells assessed as kidney damage at 1.5 to 3 mg/kg, po administered every other day for 18 days in presence of 40 mg/kg TMZ by H and E staining based assay; assay type: organism-based; settings: in vivo, 432 h, dose 1.5-3 mg/kg, time 18 day

Structure (SMILES): O=C(O)[C@@H]1[C@H](C(=O)n2ccc3ccccc32)[C@H]2CC[C@@H]1O2
- remaining at 4 h [1]: 99.8%
- half-life [2]: 2.09 h
- IC50 [3]: 33.8 µM
- Ratio IC50 [4]: 21.4
- Ratio IC50 [5]: 38
- IC50 [6]: 70.1 µM
- IC50 [7]: 26.5 µM
- IC50 at 48 h [8]: > 200 µM
- IC50 at 48 h [9]: > 200 µM
- IC50 at 48 h [10]: 57.8 µM
- IC50 [11]: 19.8 µM
- Activity [12]: 10.9%
- Activity [13]: Active
- Activity [14]: Active
- Activity [15]: Active
- Activity [16]: Active
- Activity [17]: Active
- remaining at 24 h [18]: 98.3%
- remaining at 24 h [19]: 96%
- Tmax [20]: 1.2 min
- AUC(0-inf) [21]: 13300 ng·h/mL
- half-life [22]: 2.41 h
- MRT inf [23]: 5.52 h
- Vd [24]: 1.32 L/kg
- clearance [25]: 6.3 mL/min/kg
- Cmax [26]: 11300 ng/mL
- AUC(0-inf) [27]: 54400 ng·h/mL
- half-life [28]: 3.94 h
- MRT inf [29]: 5 h
- Vz [30]: 2.62804 L/kg
- bioavailability [31]: 82%
- Activity [32]: Active
- inhibition in vivo at 3 mg/kg [33]: 87.7%
- inhibition in vivo at 1.5 mg/kg [34]: 70.9%
- Activity [35]: Active
- Activity [36]: Active
- Activity [37]: Active
- Activity [38]: Non-Toxic
- Activity [39]: Non-Toxic
- Activity [40]: Non-Toxic
